Measurements taken from patent publication EP1101492A1, “NOVEL REMEDIES FOR ALLERGIC DISEASES” (FUJI YAKUHIN KOGYO KABUSHIKI KAISHA, priority 1998, dated 2000).

Legend:
[1] = system: mouse experimental atopic dermatitis models; assay: Auricle edema in experimental atopic dermatitis model (anti-DNP IgE sensitization, DNFB elicitation); type: in vivo, Balb/c mice; settings: 60 µg/ear/dose in ethanol painted on auricles twice a day, 1 hour pre-elicitation, 6 hours, 1 to 6 days post-elicitation; for % Inhibition vLPR: 7 or 8 days post-elicitation; for % Inhibition IPR: 1 hour post-elicitation; for % Inhibition LPR: 1 day post-elicitation
Method: Intravenous injection of an anti-2,4-dinitrophenol (DNP) antibody (anti-DNP Ab, monoclonal IgE Ab; its antibody titer was 1 : 512 to 1 : 1024 by a rat heterologous passive cutaneous anaphylaxis reaction using a Wister rat) into a tail vein of female Balb/c mice (7-week old, body weight: 17 to 20 g, purchased from JAPAN SLC, Inc.) at a dose of […] per animal raised passive sensitization. Twenty four hours post-sensitization, 0.1% 2,4-dinitrofluorobenzene (DNFB; Nacalai Tesque, Inc.) in ethanol was painted onto both sides of a pair of mouse auricles at a dose of 10µL per each side for elicitation.
Fresh unsensitized mice were painted with 0.1% DNFB in ethanol onto their ear in the same manner as aforementioned and served as a control group. Not only immediately prior to elicitation but also 1 hour, 5 hours, daily between Days 1 and 14, and on Day 16 post-elicitation, ear thickness was measured using a dial thickness gauge (Peacock Co.). Each degree of auricle edemas was calculated: Auricular Edema (µm)=(Ear Thickness Post-Elicitation, µm) - (Ear Thickness immediately prior to Elicitation, µm) [formula]
Balb/c mice were passively sensitized with anti-DNP IgE Ab in the same manner as in Example 1. Twenty four hours later, 0.1% DNFB in ethanol was painted onto both sides of a pair of mouse auricles at a dose of 10 µL per each side for elicitation.
Immediately prior to elicitation, 1 hour and on Day 1 post-elicitation, auricle thickness was measured in the same manner as in Example 1. Each therapeutic efficacy is recorded as a percent inhibition wherein the "auricle edema (untreated group)" is used as a control. Auricle Edema Inhibition (%) = [ 1 -(Auricle Edema (Treated Group))/(Auricle Edema (Untreated Group))] × 100 (%) [formula]
Immediately prior to elicitation, and on Day 7 post-elicitation, auricle thickness was similarly measured. Each therapeutic efficacy is recorded as a percent inhibition wherein the auricle edema in the untreated group is used as a control.
Immediately prior to elicitation, and on Day 7 post-elicitation, auricle thickness was similarly measured. Each therapeutic efficacy is recorded as a percent inhibition wherein the auricle edema (untreated group) is used as a control.
Immediately prior to elicitation, at 1 and 4 hours and on Days 1, 3 and 7 post-elicitation, auricle thickness was similarly measured. From each auricle edema (µm) based on the auricle thickness immediately prior to elicitation, especially a prophylactically therapeutic efficacy of the test compound was evaluated.
Immediately prior to elicitation, at 0.5, 1 and 4 hours and on Days 1, 3 and 7 post-elicitation, auricle thickness was similarly measured. Each amount of auricle edemas was calculated (average± standard deviation).

allergic peritonitis = assay: Allergic peritonitis induced with ovalbumin (peritoneal exudate cells); type: in vivo, Balb/c mice; settings: ovalbumin
Method: Twenty four hours after induction, mice were sacrificed under ether […] and each penitoneal cavity was lavaged twice or thrice with a washout medium (total volume: 5 mL, physiological saline containing 10 units/mL of heparin). Peritoneal exudate cells (PEC) were harvested in a siliconized glass tube. The retrieved washout medium was measured for its yield (mL) and the number of exudate cells therein by using Turk solution and counting on a haemocytometer and a total number of PEC was calculated. An aliquot thereof (an extent of approximately 20,000 cells of PEC) was taken. Specimens for staining were prepared using Cytospin 3 (CHANDON), and PEC was stained with Dif-Quick solution (International Reagents Corporation). After staining, PEC was subjected to fractional counts under a microscope with classification into eosinophils, neutrophils, lymphocytes/macrophages and basophils based on their form and stain nature (more than 500 PEC per specimen were randomly counted). […] After counting, intraperitoneal exudation inhibition rates were calculated by the following formula and expressed as the therapeutic efficacies: Inhibition Rate (%) =[1 -((PEC in Sensitized/Drug-Treated Mouse) - (PEC in Unsensitized/Saline-Treated Mouse))/((PEC in Sensitized/Saline-Treated Mouse) - (PEC in Unsensitized/Saline-Treated Mouse))]× 100 [formula]
A physiological saline solution containing ovalbumin (0.25 mg/mL) and an aluminum hydroxide gel (4 mg/mL) was administered subcutaneously to male Balb/c mice (7 weeks old, 20 to 23 g, purchased from JAPAN SLC, Inc.) twice at one week interval at a single dose of 0.4 mL for sensitization. On Day 14 after the initial sensitization, an antigen solution for induction (2.5 µg/mL) was administered intraperitoneally to each animal at a dose of 0.4 mL to raise allergic peritonitis. Compound No. 130 (30 mg/kg) or a negative control solvent, physiological saline (10 mL/kg), was administered intraperitoneally to each animal 5 minutes prior to induction, 3 and 6 hours post-induction.
Similarly to Example 24, the peritoneal cavities were lavaged to retrieve PEC. The drained liquids were measured for their yield and total PEC number therein. In the same manner as in Example 24, PEC was stained and subjected to fractional counting under a microscope based on their form. […] Similarly to Example 24, basophils and neutrophils were excluded from subjects to be examined. In the same manner as in Example 24, intraperitoneal exudation inhibition rates were calculated and expressed as the therapeutic efficacies.
In the same manner as in Example 25, male Balb/c mice were sensitized with ovalbumin and an aluminum hydroxide gel, and, on Day 14 after the initial sensitization, treated with an antigen solution to raise allergic peritonitis. Compound No. […]
Similarly to Example 24, the peritoneal cavities were lavaged to retrieve PEC 24 hours after induction. The drained liquids were measured for their yield and total PEC number therein.

[2] = system: guinea pig experimental bronchial asthma models; assay: Experimental bronchial asthma model (ovalbumin inhalation): airway resistance and asthmatic death;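 further: female Std:Hartley guinea pigs sensitized by inhaling nebulized ovalbumin once daily for 8 consecutive days, 8 to 11 animals per group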; settings: test compounds 15 mg/kg s.c. (Compound No. 114: 30 mg/kg), prednisolone 10 mg/kg orally
Method: Guinea pigs (female, Std:Hartley, 3 weeks old, 200 to 250 g) were individually housed in a plastic chamber (width, 200 mm; depth, 300 mm; height, 167 mm). Aqueous ovalbumin (10 mg/mL) was administered to the guinea pigs once a day for sensitization by 10 min. inhalation with a nebulizer (5B, Nippon Shoji K.K.: flow rate, 6 L/min.) at a dose of 10 mg/mL during 8 cosecutive days. On Day 7 after the final sensitization, the guinea pigs were housed in a plastic chamber and inhaled using a nebulizer with a solution of ovalbumin (10 mg/mL) in physiological saline for 1 min. for elicitation (Matsumoto, T., et al., The Journal of Pharmacology and Experimental Therapeutics, 269: 1236-1244, 1994). The number of animals employed in the experiment was set to the extent there are at least 6 as individuals escaping asthmatic death. A solution of a test compound (Compound No. 130, 15 mg/kg) in water for injection was administered subcutaneously twice, i.e., 24 hours and 2 hours prior to elicitation. Similarly, the solvent alone was also administered to a negative control group. A suspension of prednisolone (10 mg/kg) in 0.5% aqueous methyl cellulose was administered orally twice, i.e., 24 hours and 2 hours prior to elicitation. Similarly, the solvent alone was also administered to another control group.
The evaluation for efficacies was conducted in terms of airway resistance. For this purpose, an apparatus dedicated to the measurement of airway resistance (K.K. Medical Agent) was employed. Measurement includes setting a guinea pig in a test chamber under a not-anesthetized condition, applying sinusoidal pressure waves of 30 Hz components to a part below the neck of the animal from the back side of the chamber, measuring respiratory waves of 30 Hz components leaking through the mouth (volume of 30 Hz air flow passing through the respiratory tract) in front of the neck, and calculating airway resistance mechanically. Measurement was carried out immediately prior to the first drug treatment (24 hours before elicitation), just prior to elicitation, 10 minutes, 1, 2, 4, 6, and 8 hours post-elicitation.
It was visually observed by a person carrying out said test in terms, of the appearance of cyanosis or suffocative death (asthmatic death) due to respiratory obstruction.
Guinea pigs were sensitized with ovalbumin and asthma was induced on Day 7 after final sensitization in the same manner as in Example 20. The number of animals employed in the experiment was set to the extent there are at least 6 as individuals escaping asthmatic death (8 to 11 animals/group). In the same manner as in Example 20, the animals were measured for airway resistance mechanically and each percent change (%) in airway resistance was calculated (each value just prior to elicitation was set as 100%). Each percent amelioration in airway resistance was calculated from the percent changes in airway resistance according to the following formula: Amelioration in Airway Resistance (%) = 1 -[((Percent Change in Airway Resistance after Drug-Administration) - (Value just prior to Challenge (100)))/((Percent Change in Airway Resistance after Solvent-Administration) - (Value just prior to Challenge (100)))]× 100 [formula]

[3] = system: mouse experimental atopic dermatitis models; assay: Scratching behavior in experimental atopic dermatitis model; type: in vivo, mice; settings: for % Inhibition (scratching behavior) / Scratching Behavior (Times) (Average± Deviation): 0.1% solution in ethanol, 10 µL per side painted 1 hour pre-elicitation; for % Inhibition (scratching behavior): counts for 15 to 30 and 30 to 45 min post-elicitation, vs solvent control; for Scratching Behavior (Times) (Average± Deviation): counts for the 15 to 30 min and 30 to 45 min post-elicitation durations, 3 animals per group, solvent control 209.0 ± 70.4
[4] = 30 mg/kg s.c., lavage 24 hours post-induction
[5] = 24 and 2 hours prior to elicitation, vs solvent control
[6] = 30 mg/kg s.c. 1 hour prior to induction and 3 hours post-induction, lavage 6 hours post-induction

Row | Structure (SMILES) | % Inhibition vLPR [1] [%] | % Inhibition IPR [1] [%] | % Inhibition LPR [1] [%] | Leukocyte exudate inhibition rate (%) (Macrophages)/(Lymphocytes) (allergic peritonitis; [4]) | Leukocyte exudate inhibition rate (%) Eosinophils (allergic peritonitis; [4]) [%] | Leukocyte exudate inhibition rate (%) Total PEC Number (allergic peritonitis; [4]) [%] | % Survival ([2]; asthmatic death within several minutes after elicitation, water for injection 54.5, 0.5% methyl cellulose 66.7) [%] | % Amelioration in Airway Resistance, 1 Hour after Elicitation [2, 5] [%] | % Amelioration in Airway Resistance, 6 Hours after Elicitation [2, 5] [%] | % Amelioration in Airway Resistance, Immediately after Elicitation [2, 5] [%] | % Inhibition (scratching behavior) [3] [%] | Scratching Behavior (Times) (Average± Deviation) [3] | Leukocyte exudate inhibition rate (%) Eosinophils (allergic peritonitis; [6]) [%] | Leukocyte exudate inhibition rate (%) Neutrophils (allergic peritonitis; [6]) [%] | Leukocyte exudate inhibition rate (%) Total PEC Number (allergic peritonitis; [6]) [%] | inhibitory efficacy on scratching in the 20 to 40 min post-elicitation duration ([3]; 0.3% Compound No. 125 vs 0.1% tacrolimus painted on auricles) | efficacy on mouse scratching behavior (FIG. 9) ([3]; 0.3% ethanolic solution, 10 µL per side painted on auricles 5 minutes pre-elicitation, observed 2 hours)
1 | CC(C)C[C@@H](C(=O)N[C@@H](Cc1ccc(CN)cc1)C(=O)O)C(CCCc1ccccc1)C(=O)NO.Cl (mixture of isomers) [Compound No. 114, N^a-[4-(N-Hydroxyamino)-2(R)-isobutyl-3(RS)-(3-phenylpropyl)succinyl]-L-4'-aminomethylphenylalanine · 1 hydrochloride] | 52 | 71 | 62 | 29.0 | 37.5 | 33.4 | 70.0 | 39.4 | 69.4 | 54.0 | 30.3 | 345.7 ± 47.1 |  |  |  |  | 
2 | CNC(=O)[C@H](Cc1ccc(N=C(N)N)cc1)NC(=O)C(CC(C)C)[C@H](CCCc1ccccc1)C(=O)NO.Cl (single isomer, unassigned) [Compound No. 125, N -[4-(N-Hydroxyamino)-2(R or S)-isobutyl-3(S)-(3-phenyltrimethylene)succinyl]-L-4'-guanidophenylalanine-N-methylamide 1 hydrochloride] | 31 | 56 | 58 | 55.1 | 38.9 | 49.6 |  |  |  |  | 40.7 | 124.0 ± 43.6 | 38.4 | 41.4 | 40.9 | higher than that of tacrolimus | apparently inhibits mouse scratching behavior
3 | CNC(=O)[C@H](CCCCN)NC(=O)[C@H](CC(C)C)C(CCCc1ccc(C(=O)OC)cc1)C(=O)NO.Cl (single isomer, unassigned) [Compound No. 129, N-[4-(N-Hydroxyamino)-2(R)-isobutyl-3(R or S)-[3-(p-methoxycarbonylphenyl)propyl)succinyl]-L-lysine N-methylamide 1 hydrochloride] | 35 | 28 | 53 | 37.7 | 30.2 | 35.1 |  |  |  |  | 31.1 | 144.0 ± 48.8 | 39.9 | 125.7 | 109.1 |  | 
4 | CNC(=O)[C@H](Cc1ccc(N=C(N)N)cc1)NC(=O)[C@@H](CC(=O)NO)CC(C)C.O=S(=O)(O)O [Compound No. 122, N-[4-(N-Hydroxyamino)-2(R)-isobutylsuccinyl]-L-4'-guanidophenylalanine-N-methylamide 1 sulfate] | 35 | 31 | 22 |  |  |  |  |  |  |  | 54.1 | 96.0 ± 32.6 |  | 27.1 | 38.6 |  | 
5 | COC(=O)[C@H](Cc1ccc(CN)cc1)NC(=O)[C@H](CC(C)C)[C@H](CCCc1ccccc1)C(=O)NO.Cl [Compound No. 132, N-[4-(N-Hydroxyamino)-2(R)-isobutyl-3(S)-(3-phenylpropyl)succinyl]-L-4'-aminomethylphenylalanine methyl ester 1 hydrochloride] | 46 | 20 | 39 | 34.0 | 24.3 | 31.6 |  |  |  |  | 49.9 | 104.7 ± 30.6 |  |  |  |  | 
